Measured values as given in patent US10457976B2, “Preparing antibodies from CHO cell cultures for conjugation” (SEATTLE GENETICS, INC., priority 2013, dated 2019).

System: QSOX1 sulfhydryl oxidase (oxidizing activity in lot DEVNKB-1)
Assay: Sulfhydryl oxidizing activity of lot DEVNKB-1 with additives (ferrous oxidation xylenol orange, FOX, assay)
Assay type: biochemical, Chinese hamster
Method: Further to characterize the oxidizing activity in lot DEVNKB-1, the lot was tested for sulfhydryl oxidizing activity using the ferrous oxidation xylenol orange (FOX) assay. Sulfhydryl oxidases catalyze the following reaction: 2R—SH+O2→R—S—S—R+H2O2 As the reaction proceeds, oxygen is consumed and hydrogen peroxide is produced. The hydrogen peroxide by-product can be detected readily and reliably, and thus serves as a proxy for sulfhydryl oxidase activity. In the FOX assay, hydrogen peroxide oxidizes ferrous iron (Fe^2+) to produce ferric iron (Fe^3+). The […] complexes with xylenol orange to form a compound that absorbs 560 nm light. Thus, by monitoring absorption of 560 nm light (e.g., using a spectrophotometer), the amount of sulfhydryl oxidizing activity in a sample can be determined. The value of a negative control is compared to the value of the test sample by determining the difference in the 560 nm reading. If the resulting value is greater than 0.1 absorbance units, then the samples is positive for oxidizing impurity. […] Addition of both DEVNKB-1 and 1 mM Zn^2+, however, was only 0.008. […] This is consistent with the oxidizing agent having a flavin-dependent sulfhydryl oxidase domain, such as QSOX1.
Further assays were performed to see whether EDTA could reverse the Zn^2+-dependent elimination of oxidizing activity in lot DEVNKB-1. In these experiments, Zn^2+ was added to the assay buffer, either with or without EDTA. In addition, assay buffer having EDTA was evaluated. […] Addition of both Zn^2+ and additional EDTA, however, reduced the oxidizing activity by only 6%. Thus, the EDTA effectively reversed the Zn^2+-dependent inhibition of oxidizing activity. Again, this is what is expected for an oxidizing agent that has a flavin-dependent sulfhydryl oxidase domain, such as QSOX1.

[1] = Table 2, additive in assay buffer, with or without additional EDTA
[2] = Table 2, relative to assay buffer with additional EDTA (100%)

Structure (SMILES)	Difference (absorption without minus with DEVNKB-1) [1]	% Activity [2]	Difference (absorption without minus with DEVNKB-1) (Table 1, additive 1 mM, 560 nm absorption)	Difference (absorption without minus with DEVNKB-1) (Table 1, additive 1 mM, 560 nm absorption, listed as Zn^2+)	% Activity (Table 1, additive 1 mM, relative to DEVNKB-1 without additive)	reduction of oxidizing activity associated with lot DEVNKB-1 (relative to assay buffer that contained additional EDTA)
O=C(O)CN(CCN(CC(=O)O)CC(=O)O)CC(=O)O [EDTA]	0.572	100%				
[Zn+2] [Zn2+]	0.03097	5%	0.0079	0.008	1%	95%
